Here are results for 3 molecules from patent US4230698A, “2-Substituted arabinofuranosyl nucleosides and nucleotides” (Research Corporation, priority 1978, dated 1980).

For one data set, the system named is HeLa. The data set can be described thus: In vitro cytotoxicity testing (growth inhibition, Trypan Blue exclusion), HeLa. The following applies: Homo sapiens, 40 hr, 37 degrees C, read-out: Concentration for 50% Inhibition of Growth. The data set is classed as cell-based. As for the experimental part:
(§1) Cytarazid, the β-anomer of the nucleoside prepared in Example 3 herein, and cytaramin, the nucleoside prepared in Example 4 herein, are evaluated in vitro for growth inhibiting potency against mammalian cancer cells by a micro technique, using the culture conditions described by Bobek et al. in J. Med. Chem., vol. 20, p. 458 (1977), whereby 0.5 ml. aliquots of medium (RPMI 1640.div.10% fetal calf serum) containing the test compound are introduced into 16×125 mm. screw cap culture tubes, followed by 0.5 ml. portions of the medium containing 1×10^5 mammalian cancer cells. The cultures are incubated at 37 degrees C. for 40 hr., after which time the viable cells are counted by Trypan Blue exclusion. During this time the cell number in the controls increases about four to nine-fold with an average cell viability of 99%. The test results are as follows:
(§2) Concentration for 50% Inhibition of Growth
(§3) Cell Line Cytarazid Cytaramin

Another data set relates to L-1210. The data set can be described thus: In vitro cytotoxicity testing (growth inhibition, Trypan Blue exclusion), L-1210. In kind it is cell-based. The following applies: Mus musculus, L1210, 40 hr, 37 degrees C, read-out: Concentration for 50% Inhibition of Growth. As for the experimental part: as §1, §2, §3
The subject of data set [1] is Herpes Simplex type I virus. The data set can be described thus: In vitro antiviral testing, plaque reduction, Herpes Simplex type I. The note with it: for antiviral properties: plaque reduction. The data set is classed as cell-based. From the text: (§4) Cytarazid and cytaramin, when tested in vitro against Herpes Simplex types I and II viruses, utilizing the plaque reduction technique described by Dulbecco, Proceedings National Academy of Sciences, vol. 38, p.

The subject of a further data set is CR-CdR deaminase. The data set can be described thus: in vitro. As for the experimental part: (§5) Partially purified CR-CdR deaminase is prepared from two different sources: (1) human liver, following the procedure of Wentworth and Wolfender, Biochemistry, vol. 14, p. 5099 (1975), and (2) blast cells of patients with acute myelocytic leukemia, using ammonium sulfate fractionation and DEAE column chromatography. The assay procedure is described by Wentworth and Wolfander, ibid.

Data set [2] has as its system Herpes Simplex type II virus. As to the kind of experiment: In vitro antiviral testing, plaque reduction, Herpes Simplex type II. The data set is classed as cell-based. The note with it: for antiviral properties: plaque reduction.
Description: as §4

A further data set concerns L-1210 leukemic cells. As to the kind of experiment: In vivo cytotoxicity testing, survival of mice inoculated with L-1210 leukemic cells. Also on record: species or system DBA/2 HaDD mice. The note with it: control 8.7 days. As for the experimental part: Cytarazid and cytaramin are evaluated in vivo for growth inhibitory potency against leukemic cells by intraperitoneally inoculating DBA/2 HaDD mice with an IP-PBS saline suspension of 1×10^6 L-1210 leukemic cells, waiting 24 hrs., and then administering the test compound intraperitoneally in 0.2 ml. of saline-phospate buffer solution (pH 7.0).

Data set [3] concerns Molt 4F (T-type from lymphoblastic leukemia). As to the kind of experiment: In vitro cytotoxicity testing (growth inhibition, Trypan Blue exclusion), Molt 4F. The data set is classed as cell-based. The following applies: Homo sapiens, 40 hr, 37 degrees C, read-out: Concentration for 50% Inhibition of Growth. Here is the method: as §1, §2, §3
The nature of another data set: in vitro. The note with it: human, cr-cdr deaminase. As for the experimental part:
as §5

[4] abbreviates: 50 μM, read-out: inhibition of the virus (log).

On to `Nc1ccn([C@@H]2O[C@H](CO)[C@@H](O)[C@@H]2N)c(=O)n1` [Cytaramin, 1-(2-amino-2-deoxy-β-D-arabinofuranosyl) cytosine], for which the IC50 was 30000 nM in the data set on HeLa and 4000 nM in the data set on L-1210. Moreover, the antiviral properties result in data set [1] and in data set [2] was “significant antiviral properties” throughout. Further, in the data set on CR-CdR deaminase, the “deamination detected in 8 hrs” value is “no significant deamination”. Further, in the data set with L-1210 leukemic cells (75 mg/kg IP twice per day 8 hrs apart for 2 days beginning 24 hrs after tumor inoculation), the “Survival Time” value is above 120 days.

Regarding `[N-]=[N+]=N[C@H]1[C@H](O)[C@@H](CO)O[C@H]1n1ccc(N)nc1=O` [Cytarazid, 1-(2-azido-2-deoxy-β-D-arabinofuranosyl) cytosine], the IC50 worked out at 200 nM with HeLa, 600 nM in the data set on L-1210 and 70 nM in data set [3]. Besides, the inhibition at 50 µM is above 99.9% in data set [1] (50 μM) and above 99% in data set [2] (50 μM). Moreover, the log reduction at 50 µM in data set [1] (setting [4]) is above 3; in data set [2] (setting [4]), above 2. The antiviral properties entry in data set [1] and in data set [2] was “significant antiviral properties” in each case. Further, in the data set with CR-CdR deaminase, the “deamination detected in 8 hrs” value is “no significant deamination”. The “Survival Time” value in the data set on L-1210 leukemic cells (40 mg/kg IP twice per day 8 hrs apart for 2 days beginning 24 hrs after tumor inoculation) was above 120 days.

`Nc1ccn([C@@H]2O[C@H](CO)[C@@H](O)[C@@H]2O)c(=O)n1` [cytarabine, reference compound] registered a half-life in “in vitro” of 45 min.
